The text below walks through data of publication PMC7164518 (Science (New York, N.y.), 2020).

The target of one series is SARS-CoV-2 M^pro (Severe acute respiratory syndrome coronavirus 2, UniProt P0DTD1). Kind of series: Inhibition of purified recombinant SARS-CoV-2 Mpro. Format: biochemical. Particulars: 14b relative to 13b.
For the next series, the system named is SARS-CoV-2. Kind of series: SARS-CoV-2 replication in human Calu-3 lung cells (viral RNA by qPCR). The series is classed as cell-based. Particulars: MOI 0.05. As for the experimental part:
(A) Calu-3 cells were infected with SARS-CoV-2 using a multiplicity of infection (MOI) of 0.05. […] DMSO was used as vehicle control (black bar). Total RNA was isolated from cell lysates, and viral RNA content was analyzed by quantitative polymerase chain reaction. Data are means ± SD of two biological experiments with two technical replicates each.
(In general: In qPCR the cycle at which signal appears reflects the starting amount.)

The nature of series [1]: Pharmacokinetics in CD-1 mice, subcutaneous route. Format: in vivo. To be noted: for half-life / Cmax / MRT: plasma.
Series [2] can be described thus: In vitro kinetic plasma solubility. The series is classed as physicochemical. To be noted: plasma or biological fluid, kinetic from dmso stock.
A short description of another series: Thermodynamic solubility. Particulars: thermodynamic from solid. The series is classed as physicochemical.
Series [3] in a line: Binding to mouse plasma protein. Format: in vitro ADME.
Series [4] relates to Middle East respiratory syndrome–coronavirus (MERS-CoV). Particulars: Huh7 cells; read-out: EC50 against MERS-CoV; cited from earlier work.
Another series has as its system SARS-CoV. To be noted: various cell lines; cited from earlier work.
The next series relates to enteroviruses. To be noted: various cell lines; cited from earlier work.
For series [5] the following is noted: human microsomes.
Series [6] in a line: in vitro. Particulars: mouse, microsomes.
Series [7] is described as follows: in vitro. Particulars: human, microsomes.
Another series addresses MERS-CoV M^pro (Middle East respiratory syndrome-related coronavirus, UniProt K9N7C7). In words: biochemical.
In the next series the test system is SARS-CoV replicon. In words: microbe, parasite or virus in culture. Format: cell-based. To be noted: Severe acute respiratory syndrome coronavirus, read-out: EC50 inhibition of RNA replication in SARS-CoV replicon. For orientation: A replicon is a self-replicating genome or part of one, used to study replication in cells.
The nature of series [8]: Binding to human plasma proteins. The series is classed as in vitro ADME.
Another series is described as follows: in vivo. Particulars: CD-1, mouse, lung, inhaled, 3 mg kg^−1.

In brackets after ≈: the same amount, converted by molar mass. Where two headings read alike, the source gives them in different places.

Sequence of MERS-CoV M^pro (K9N7C7 3248-3553 limits assumed): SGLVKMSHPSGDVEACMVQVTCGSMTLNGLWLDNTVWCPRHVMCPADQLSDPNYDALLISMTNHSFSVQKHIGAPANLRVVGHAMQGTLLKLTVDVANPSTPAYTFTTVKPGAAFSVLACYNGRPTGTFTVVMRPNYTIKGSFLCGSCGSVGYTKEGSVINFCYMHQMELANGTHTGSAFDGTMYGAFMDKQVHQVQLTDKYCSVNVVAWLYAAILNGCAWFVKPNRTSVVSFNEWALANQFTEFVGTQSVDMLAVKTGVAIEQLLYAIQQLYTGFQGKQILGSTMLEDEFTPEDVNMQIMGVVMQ

Take `Nc1cccn([C@@H](CC2CC2)C(=O)N[C@@H](C[C@@H]2CCNC2=O)C(=O)C(=O)NCc2ccccc2)c1=O` [Compound 14b]: the “weakening of inhibitory potency on removing the Boc group (factor)” value on SARS-CoV-2 M^pro was ~ 2. In addition, in the series with SARS-CoV-2 (5, 10, 20 or 40 μM), the “activity in human Calu-3 cells infected with SARS-CoV-2” value is “almost inactive”.

By half-life is commonly meant the time in which the quantity being followed falls by half. High values mean slow loss, low ones fast loss. Broadly, the kinetic solubility is the concentration staying in solution when a stock, usually in DMSO, is diluted into the medium. One may read the thermodynamic solubility as the concentration in solution at equilibrium with solid. As usually defined, the EC50 is the midpoint of the concentration-response curve. In the case of `O=C(/C=C/c1ccccc1)N[C@@H](CC1CCCCC1)C(=O)N[C@@H](C[C@@H]1CCNC1=O)C(=O)C(=O)NCc1ccccc1` [Compound 11r, reference compound], the half-life in series [1] (CD-1, mouse, mice) was 0.3 h. Besides, in [2], the solubility (kinetic) amounted to 6 µM (≈ 3.44 µg/mL). The solubility (thermodynamic) in the series “Thermodynamic solubility” amounted to 41 µM (≈ 23.5 µg/mL). In addition, the “binding to mouse plasma protein” value in series [3] worked out at 99%. Besides, the concentration for a half-maximal effect (EC50) in series [4] was 0.4 nM. The “EC50 values against SARS-CoV” value in the series with SARS-CoV was “low-μM”. Also, the “EC50 values against a whole range of enteroviruses” value in the series with enteroviruses was “low-μM”.

What is called microsomal CLint is the rate of metabolic loss divided by the concentration. Read a high microsomal CLint as rapid turnover. In [1] (CD-1, mouse, mice), `CC(C)(C)OC(=O)Nc1cccn([C@@H](CC2CCCCC2)C(=O)N[C@@H](C[C@@H]2CCNC2=O)C(=O)C(=O)NC2CC2)c1=O` [Compound 13a, tert-butyl (1-((S)-3-cyclohexyl-1-(((S)-4-(cyclopropylamino)-3,4-dioxo-1-((S)-2-oxopyrrolidin-3-yl)butan-2-yl)amino)-1-oxopropan-2-yl)-2-oxo-1,2-dihydropyridin-3-yl)carbamate] had a half-life of 1 h. In addition, in series [1] (CD-1 mice, 20 mg/kg), the “time compound stayed in plasma” value was “up to 4 hours”. The “time compound was excreted via urine” value in series [1] (CD-1 mice, 20 mg/kg) is recorded as “up to 24 hours”. For the same compound, the concentration at 24 hours is 52.7 ng/mL in series [1] (mouse, bronchio-alveolar lavage fluid (BALF), sc, CD-1 mice, 20 mg/kg, read-out: concentration in bronchio-alveolar lavage fluid (BALF) at 24 hours) and 135 ng/g in series [1] (mouse, lung, sc, CD-1 mice, 20 mg/kg, read-out: concentration in lung tissue at 24 hours). Moreover, the Cmax in series [1] (mouse, sc, CD-1 mice, 20 mg/kg, read-out: maximum plasma concentration (Cmax)) turned out to be 334 ng/mL. In addition, in [1] (mouse, sc, CD-1 mice, 20 mg/kg, read-out: mean residence time), the MRT is about 1.6 h. For the same compound, the solubility (kinetic) in series [2] is 112 µM (≈ 65.6 µg/mL). Besides, the thermodynamic solubility in “Thermodynamic solubility” was 530 µM (≈ 310 µg/mL). Further, in series [3], the “binding to mouse plasma protein” value was determined as 97%. Besides, the “residual compound remaining metabolically stable after 30 min” value in [5] is listed as about 60%. For the same compound, the intrinsic clearance (microsomal CLint) in “in vitro [6]” turned out to be 32 µL/min/mg; in “in vitro [7]”, 21 µL/min/mg.

Broadly, the IC50 is the midpoint of a concentration-inhibition curve. The low end stands for greater potency in that assay, the high end for weaker potency in that assay. Regarding `CC(C)(C)OC(=O)Nc1cccn([C@@H](CC2CC2)C(=O)N[C@@H](C[C@@H]2CCNC2=O)C(=O)C(=O)NCc2ccccc2)c1=O` [Compound 13b], the half-inhibitory concentration (IC50) against MERS-CoV M^pro stood at 580 ± 220 nM. Besides, the EC50 with SARS-CoV replicon was 1750 ± 250 nM; with SARS-CoV-2 (Severe acute respiratory syndrome coronavirus 2, Calu-3, viral RNA by qPCR, read-out: EC50 in human Calu-3 cells infected with SARS-CoV-2) it was 4000 to 5000 nM. Moreover, in series [1] (13b 3 mg kg^−1 vs 13a 20 mg/kg), the “Cmax as percent of the Cmax detected for 13a” value was “around 37%”. In addition, the concentration at 4 hours in series [1] (mouse, lung, sc, CD-1 mice, 3 mg kg^−1, 4 hours, read-out: lung tissue level after 4 hours) is about 13 ng/g. For the same compound, the half-life in series [1] (mouse, sc, CD-1 mice, 3 mg kg^−1) was 1.8 h. The Cmax in series [1] (mouse, sc, CD-1 mice, 3 mg kg^−1, read-out: maximum plasma concentration (Cmax)) was determined as 126 ng/mL. The MRT in series [1] (mouse, sc, CD-1 mice, 3 mg kg^−1, read-out: mean residence time) came to 2.7 h. For the same compound, in series [8], the “binding to human plasma proteins” value is given as 90%. In the series “in vivo”, this compound showed a concentration at 24 hours of 33 ng/g.
